Source: patent publication US20210308101A1, “METHODS OF TREATING FIBROMYALGIA” (Aptinyx Inc., priority 2019, published 2021)

Legend:
[1] = test system: subjects with fibromyalgia; experiment: PROMIS Physical Function short form; type: in vivo, human
Source text: As used herein, the “PROMIS Physical Function short form” is Patient Reported Outcomes Measurement Information System Physical Function Short Form. The PROMIS physical function short form version 1.0 12a measures the self-reported performance of physical activities including dexterity, walking or mobility and the ability to complete activities of daily living. All 12 questions are based on a 5-point numerical rating scale/Likert scale ranging from 1 to 5 with different categorical responses. Higher scores represent a better quality of life. The PROMIS physical function is made of the 2 following subdomains: • Walking Subdomain Score • If the question, “Can you walk 25 feet on a level surface (with or without support)?” is answered yes, then 6 questions will be assessed. Otherwise, the Walking Subdomain Score will not be calculated. 4 Questions with Scores Ranging from 1 (Unable to do) to 5 (Without any difficulty): • Are you able to walk on flat ground? • Are you able to walk up and down two steps? • Are you able to run at a fast pace for 2 miles? • Are you able to do yard work like raking leaves, weeding, or pushing a lawn mower? 2 Questions with Scores Ranging from 1 (Cannot do) to 5 (Not at all): • Does your health now limit you in doing strenuous activities such as backpacking, skiing, playing tennis, bicycling, or jogging? • Does your health now limit you in hiking a couple of miles on uneven surfaces, including hills? • Sum of those 6 Questions make up the Walking Subdomain Score Ranging from 6 to 30 • Other Physical Function Subdomain Score 5 Questions with Scores Ranging from 1 (Unable to do) to 5 (Without any difficulty): • Are you able to wash and dry your body? • Are you able to get in and out of bed? • Are you able to bend down and pick up clothing from the floor? • Are you able to push open a heavy door? • Are you able to reach and get down an object (such as a can of soup) from above your head? 1 Question with Scores Ranging from 1 (Cannot do) to 5 (Not at all): • Does your health now limit you in doing eight hours of physical labor? • Sum of those 6 Questions make up the Other Physical Function Subdomain Score Ranging from 6 to 30
If at least 3 questions have been answered within an individual subdomain, that subdomain score may be imputed if missing responses are present. […] A total score for PROMIS physical function was not calculated. The PROMIS physical function assessment was collected and analyzed at visits Screening, Day 1, Week 2, Week 4, Week 6, and Follow-up (Week 7). […] Additionally, the treatment group comparisons were analyzed using the paired t-test and nonparametric Wilcoxon signed-rank test. All PROMIS physical function data collected and the calculated subdomain scores at each visit were presented in a subject listing.

[2] = test system: subjects with fibromyalgia; experiment: Quantitative Sensory Testing, all outcomes; type: in vivo, human
Source text: Other efficacy assessments, as used herein, include “Multi-Modal Automated Sensory Testing” (MAST) Pressure Pain Sensitivity, “Cuff Algometry,” and “Visual Stimulation Task.”
The multi-modal automated sensory testing (MAST) system was used to measure localized pressure sensitivity at an asymptomatic, neutral body site, the thumbnail. The MAST system is a nonsignificant-risk investigational device that applies a computer-controlled mechanical stimulation at precisely controlled intensity levels and durations. The validity in the measurement of centrally-mediated pain sensitivity has been discussed extensively. The MAST system delivered an ascending series of computer-controlled, 5-second pressures at 20-second intervals (with 20% jitter) to the subject's thumbnail bed, beginning at 0.25 to 0.5 kg/cm^2 and increasing in steps of 0.25 to 0.50 kg/cm^2. Pain intensity was rated after each pressure on a 0 to 100 NRS. Testing was terminated when the first of 3 possible stop conditions were met: 1) subject reached her personal pain tolerance and requested to stop the test, 2) subject reported a pain intensity rating of >80, or 3) the maximum pressure of 10 kg/cm^2 was delivered. A regression model was used fit the stimulus-response data obtained from this procedure and interpolate Pain50, defined as the pressure intensity that evokes a moderate level of suprathreshold pressure pain (i.e., 50/100). Additional derived variables included: 1) Pressure pain threshold, defined as the first pressure in a series of at least 2 consecutive pressures that elicited a NRS pain rating >0; 2) slope of the stimulus-response function as a measure of the rate of pain increase; and 3) pressure pain tolerance, defined as the last pressure recorded in the stimulus response profile. […]
Localized pressure pain sensitivity was also measured bilaterally at 3 additional body regions: trapezius, wrist, and patella. […] Sensitivity was measured using a digital algometer with a 1-cm^2 flat rubber probe. […]
Large volume, deep tissue pressure sensitivity was assessed by cuff algometry. […]

[3] = Week 2 (placebo) to Week 4 (NYX-2925 20 mg)
[4] = Week 2 (placebo) to Week 6 (NYX-2925 200 mg), not statistically significant

For CC(C)C(=O)N1CCC[C@]12CN([C@H](C(N)=O)[C@@H](C)O)C2=O [NYX-2925, (2S, 3R)-3-hydroxy-2-((R)-5-isobutyryl-1-oxo-2,5-diazaspiro[3.4]octan-2-yl)butanamide], the “PROMIS Physical Function Other Physical Function Subdomain score, mean change” value [1, 3] was −0.1, the “PROMIS Physical Function Walking Subdomain score, mean change” value [1, 3] was 0.2 and the “PROMIS Physical Function Other Physical Function Subdomain score, mean change” value [1, 4] was 0.4. For the same compound, the “PROMIS Physical Function Walking Subdomain score, mean change” value [1, 4] was 0.5, the “effects on QST relative to placebo” value ([2]; NYX-2925 20 mg) was “no significant or marginal effects” and the “differences on QST between doses” value ([2]; NYX-2925 20 mg versus NYX-2925 200 mg) was “no significant or marginal differences”. For the same compound, the “effects on QST outcomes relative to placebo, other than right trapezius threshold” value ([2]; NYX-2925 200 mg) was “no additional significant or marginal effects”.
